Measurements as given in PubChem BioAssay AID328 (DTP/NCI, 2004).
“And” between values parts separate entries of the source, which are not always exact repeats. Equal values may be shown once. Inconclusive results and toxic doses are left out.

Tested on: BDF1 mice, P388 leukemia ip, median survival T/C
Assay: NCI In Vivo Anticancer Drug Screen. Data for tumor model P388 Leukemia (intraperitoneal) in B6D2F1 (BDF1) mice
Details: endpoint: median survival time, higher = longer survival
In short: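 Vehicle-dosed animals serve as the reference; survival of compound-dosed, tumour-implanted mice is divided by it.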

[1] = dose: 200.0 mg/kg/injection, schedule: Q04DX003 (ip), vehicle: saline
[2] = dose: 100.0 mg/kg/injection, schedule: Q01DX001 (ip), vehicle: saline with Tween-80
[3] = dose: 200.0 mg/kg/injection, schedule: Q01DX001 (ip), vehicle: saline with Tween-80
[4] = dose: 400.0 mg/kg/injection, schedule: Q01DX001 (ip), vehicle: saline with Tween-80
[5] = dose: 50.0 mg/kg/injection, schedule: Q01DX009 (ip), vehicle: saline with Tween-80
[6] = dose: 100.0 mg/kg/injection, schedule: Q01DX009 (ip), vehicle: saline with Tween-80
[7] = dose: 100.0 mg/kg/injection, schedule: Q01DX009 (ip), vehicle: Klucel (hydroxypropylcellulose) (HPC)
[8] = dose: 100.0 mg/kg/injection, schedule: Q04DX003 (ip), vehicle: Klucel (hydroxypropylcellulose) (HPC)
[9] = dose: 400.0 mg/kg/injection, schedule: Q01DX009 (ip), vehicle: Klucel (hydroxypropylcellulose) (HPC)
[10] = dose: 100.0 mg/kg/injection, schedule: Q01DX001 (ip), vehicle: Klucel (hydroxypropylcellulose) (HPC)
[11] = dose: 200.0 mg/kg/injection, schedule: Q01DX001 (ip), vehicle: Klucel (hydroxypropylcellulose) (HPC)
[12] = dose: 200.0 mg/kg/injection, schedule: Q04DX003 (ip), vehicle: Klucel (hydroxypropylcellulose) (HPC)
[13] = dose: 400.0 mg/kg/injection, schedule: Q01DX001 (ip), vehicle: Klucel (hydroxypropylcellulose) (HPC)
[14] = dose: 400.0 mg/kg/injection, schedule: Q04DX003 (ip), vehicle: Klucel (hydroxypropylcellulose) (HPC)
[15] = dose: 100.0 mg/kg/injection, schedule: Q04DX003 (ip), vehicle: saline with Tween-80
[16] = dose: 200.0 mg/kg/injection, schedule: Q01DX009 (ip), vehicle: saline with Tween-80
[17] = dose: 200.0 mg/kg/injection, schedule: Q04DX003 (ip), vehicle: saline with Tween-80
[18] = dose: 400.0 mg/kg/injection, schedule: Q01DX009 (ip), vehicle: saline with Tween-80
[19] = dose: 400.0 mg/kg/injection, schedule: Q04DX003 (ip), vehicle: saline with Tween-80
[20] = dose: 200.0 mg/kg/injection, schedule: Q01DX009 (ip), vehicle: Klucel (hydroxypropylcellulose) (HPC)
[21] = dose: 50.0 mg/kg/injection, schedule: Q01DX009 (ip), vehicle: Klucel (hydroxypropylcellulose) (HPC)

CCOC(=O)CCN1CCOCC1
T/C (dose: 100.0 mg/kg/injection, schedule: Q01DX009 (ip), vehicle: saline): 100 % of control | T/C (dose: 100.0 mg/kg/injection, schedule: Q04DX003 (ip), vehicle: saline): 95 % of control | T/C (dose: 200.0 mg/kg/injection, schedule: Q01DX009 (ip), vehicle: saline): 100 % of control | T/C [1]: 100 % of control | T/C (dose: 400.0 mg/kg/injection, schedule: Q01DX009 (ip), vehicle: saline): 100 % of control | T/C (dose: 400.0 mg/kg/injection, schedule: Q04DX003 (ip), vehicle: saline): 108 % of control

COc1ccc(Cl)cc1NC1=CC(c2ccc(Cl)cc2)OC1=O (stereo not drawn)
T/C [2]: 100 % of control | T/C [3]: 100 % of control | T/C [4]: 95 % of control

CCCCCCCCCSC(=S)N(C)NC(=O)c1ccccn1
T/C [5]: 98 % of control | T/C [6]: 98 % of control

O=C1N/C(=N\O)S/C1=C/c1ccc2c(c1)OCO2
T/C [2]: 89 % of control | T/C [3]: 95 % of control | T/C [4]: 105 % of control

CCCCCCCCCCNc1ccc(NCCCCCCCCCC)cc1
T/C [7]: 100 % of control | T/C [8]: 120 % of control | T/C [9]: 100 % of control

CCC[CH2][Sn]1([CH2]CCC)[O]OC(C)(CC)[O]1 (stereo not drawn)
T/C (dose: 0.69 mg/kg/injection, schedule: Q01DX009 (ip), vehicle: saline with Tween-80): 108 % of control | T/C (dose: 1.04 mg/kg/injection, schedule: Q01DX009 (ip), vehicle: saline with Tween-80): 104 % of control | T/C (dose: 1.56 mg/kg/injection, schedule: Q01DX009 (ip), vehicle: saline with Tween-80): 120 % of control | T/C (dose: 2.35 mg/kg/injection, schedule: Q01DX009 (ip), vehicle: saline with Tween-80): 104 % of control

CCC1c2ccc3cc(OC)ccc3c2C(=O)CC1C(=O)O (stereo not drawn)
T/C (dose: 100.0 mg/kg/injection, schedule: Q04DX003 (sc), vehicle: steriod suspending solution): 113 % of control | T/C (dose: 200.0 mg/kg/injection, schedule: Q04DX003 (sc), vehicle: steriod suspending solution): 100 % of control | T/C (dose: 400.0 mg/kg/injection, schedule: Q04DX003 (sc), vehicle: steriod suspending solution): 95 % of control

CCOC(=O)CCCl
T/C [10]: 95 % of control | T/C [8]: 100 % of control | T/C [11]: 104 % of control | T/C [12]: 104 % of control | T/C [13]: 91 % of control | T/C [14]: 100 % of control

Cc1ccccc1NC=O
T/C (dose: 90.0 mg/kg/injection, schedule: Q01DX009 (ip), vehicle: saline with Tween-80): 103 % of control | T/C [15]: 95 % of control | T/C (dose: 135.0 mg/kg/injection, schedule: Q01DX009 (ip), vehicle: saline with Tween-80): 107 % of control | T/C [16]: 99 % of control | T/C [17]: 104 % of control | T/C (dose: 300.0 mg/kg/injection, schedule: Q01DX009 (ip), vehicle: saline with Tween-80): 107 % of control | T/C [18]: 120 % of control | T/C [19]: 116 % of control

CC(=O)[C@H]1[C@H](C)C[C@H]2[C@@H]3CCC4=CC(=O)CC[C@]4(C)[C@@]3(F)[C@@H](O)C[C@@]21C
T/C [7]: 105 % of control | T/C (dose: 100.0 mg/kg/injection, schedule: Q04DX003 (ip), vehicle: alcohol): 120 % of control | T/C (dose: 132.0 mg/kg/injection, schedule: Q04DX003 (ip), vehicle: saline): 115 % of control | T/C [20]: 120 % of control | T/C [1]: 104 % of control and 120 % of control | T/C (dose: 300.0 mg/kg/injection, schedule: Q04DX003 (ip), vehicle: saline): 110 % of control and 113 % of control | T/C [9]: 120 % of control | T/C (dose: 400.0 mg/kg/injection, schedule: Q04DX003 (ip), vehicle: alcohol): 105 % of control

O=S1(=O)C=Cc2ccccc21
T/C [21]: 92 % of control | T/C [7]: 100 % of control | T/C [8]: 100 % of control | T/C [20]: 107 % of control | T/C [12]: 95 % of control

O=C1c2ccc(Br)cc2-c2cc(Br)ccc21
T/C [6]: 99 % of control | T/C [16]: 106 % of control | T/C [18]: 101 % of control

O=C(COC1CCCCC1)OC1CCCCC1
T/C (dose: 25.0 mg/kg/injection, schedule: Q01DX009 (ip), vehicle: saline with Tween-80): 100 % of control | T/C [5]: 113 % of control | T/C [6]: 118 % of control

O=C1c2ccccc2CC1(Br)C(Br)c1ccccc1 (stereo not drawn)
T/C [6]: 115 % of control | T/C [15]: 104 % of control | T/C [16]: 108 % of control | T/C [17]: 104 % of control | T/C [18]: 115 % of control | T/C [19]: 103 % of control

CNC(=O)NNc1ccccc1
T/C [12]: 115 % of control | T/C [14]: 115 % of control

N#Cc1ccc(-c2ccc(C#N)cc2Br)c(Br)c1
T/C (dose: 22.0 mg/kg/injection, schedule: Q01DX009 (ip), vehicle: Klucel (hydroxypropylcellulose) (HPC)): 92 % of control | T/C (dose: 25.0 mg/kg/injection, schedule: Q01DX009 (ip), vehicle: Klucel (hydroxypropylcellulose) (HPC)): 110 % of control | T/C (dose: 33.0 mg/kg/injection, schedule: Q01DX009 (ip), vehicle: Klucel (hydroxypropylcellulose) (HPC)): 95 % of control | T/C [21]: 100 % of control | T/C (dose: 75.0 mg/kg/injection, schedule: Q01DX009 (ip), vehicle: Klucel (hydroxypropylcellulose) (HPC)): 89 % of control | T/C [7]: 88 % of control and 110 % of control | T/C [8]: 95 % of control | T/C [12]: 100 % of control | T/C [14]: 100 % of control

Cc1ccc(C(=O)C2CN(C)CCC2(O)c2ccc(C)cc2)cc1 (stereo not drawn)
T/C [10]: 90 % of control | T/C [11]: 110 % of control | T/C [13]: 90 % of control

CC1(O)c2cccc(Sc3ccccc3)c2C(C)(O)c2c(Sc3ccccc3)cccc21 (stereo not drawn)
T/C [5]: 107 % of control | T/C [6]: 99 % of control | T/C [16]: 98 % of control

Fc1ccc(CSc2ncnc3c2ncn3C2CCCCO2)cc1 (stereo not drawn)
T/C (dose: 100.0 mg/kg/injection, schedule: Q04DX003 (ip), vehicle: other): 100 % of control | T/C [20]: 100 % of control | T/C (dose: 200.0 mg/kg/injection, schedule: Q04DX003 (ip), vehicle: other): 100 % of control | T/C (dose: 400.0 mg/kg/injection, schedule: Q04DX003 (ip), vehicle: other): 105 % of control

COC(=O)/C(=C/c1ccccc1)c1ccccc1
T/C [5]: 101 % of control | T/C [6]: 99 % of control | T/C [16]: 96 % of control

N=C(N)c1cn(C2OC(CO)C(O)C2O)c2ncnc(N)c12 (stereo not drawn)
T/C (dose: 0.44 mg/kg/injection, schedule: Q01DX009 (ip), vehicle: saline): 156 % of control | T/C (dose: 0.44 mg/kg/injection, schedule: Q04DX003 (ip), vehicle: saline): 102 % of control | T/C (dose: 0.66 mg/kg/injection, schedule: Q01DX009 (ip), vehicle: saline): 164 % of control | T/C (dose: 0.66 mg/kg/injection, schedule: Q04DX003 (ip), vehicle: saline): 109 % of control | T/C (dose: 1.0 mg/kg/injection, schedule: Q01DX009 (ip), vehicle: Klucel (hydroxypropylcellulose) (HPC)): 160 % of control | T/C (dose: 1.0 mg/kg/injection, schedule: Q01DX009 (ip), vehicle: saline): 162 % of control | T/C (dose: 1.0 mg/kg/injection, schedule: Q04DX003 (ip), vehicle: saline): 100 % of control | T/C (dose: 1.5 mg/kg/injection, schedule: Q01DX009 (ip), vehicle: saline): 173 % of control | T/C (dose: 3.13 mg/kg/injection, schedule: Q01DX009 (ip), vehicle: saline): 202 % of control | T/C (dose: 6.25 mg/kg/injection, schedule: Q04DX003 (ip), vehicle: saline): 154 % of control | T/C (dose: 8.0 mg/kg/injection, schedule: Q01DX009 (ip), vehicle: Klucel (hydroxypropylcellulose) (HPC)): 90 % of control and 105 % of control | T/C (dose: 12.5 mg/kg/injection, schedule: Q01DX009 (ip), vehicle: saline): 86 % of control | T/C (dose: 12.5 mg/kg/injection, schedule: Q04DX003 (ip), vehicle: saline): 177 % of control | T/C (dose: 16.5 mg/kg/injection, schedule: Q04DX003 (ip), vehicle: saline): 159 % of control and 181 % of control | T/C (dose: 25.0 mg/kg/injection, schedule: Q04DX003 (ip), vehicle: saline): 181 % of control and 190 % of control | T/C (dose: 37.5 mg/kg/injection, schedule: Q04DX003 (ip), vehicle: saline): 181 % of control
